Laboratory results from PubChem BioAssay (NCI).
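A five-concentration, 48-hour dose response in 96-well plates underlies each endpoint, interpolated linearly between surrounding concentrations. GI50: concentration for 50% inhibition of growth. TGI marks complete inhibition of growth.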

Legend:
Assay in all cases: inhibition of tumour cell growth, NCI panel, 48 h
[1] = system: SK-MEL-2 melanoma
[2] = system: LOX IMVI melanoma
[3] = system: K-562 leukemia
[4] = system: A498 renal
[5] = system: SNB-19 CNS
[6] = system: OVCAR-4 ovarian
[7] = system: SK-OV-3 ovarian
[8] = system: NCI-H522 lung
[9] = system: OVCAR-8 ovarian
[10] = system: HS 578T breast
[11] = system: SNB-75 CNS
[12] = system: HT29 colon
[13] = system: HL-60(TB) leukemia
[14] = system: MOLT-4 leukemia
[15] = system: KM12 colon
[16] = system: HCC-2998 colon
[17] = system: HOP-92 NSCLC
[18] = system: SN12C renal
[19] = system: UACC-62 melanoma
[20] = system: A549 NSCLC
[21] = system: NCI-H226 lung
[22] = system: M14 melanoma
[23] = system: HOP-62 NSCLC
[24] = system: BT-549 breast
[25] = system: NCI-H460 lung
[26] = system: OVCAR-3 ovarian
[27] = system: NCI/ADR-RES ovarian
[28] = system: PC-3 prostate
[29] = system: SF-539 CNS
[30] = system: SF-295 CNS
[31] = system: COLO 205 colon
[32] = system: ACHN renal
[33] = system: OVCAR-5 ovarian
[34] = system: HCT-15 colon
[35] = system: U251 CNS
[36] = system: CAKI-1 renal
[37] = system: 786-0 renal
[38] = system: DU-145 prostate
[39] = system: RPMI-8226 leukemia
[40] = system: CCRF-CEM leukemia
[41] = system: SK-MEL-5 melanoma
[42] = system: RXF 393 renal
[43] = system: UACC-257 melanoma
[44] = system: MALME-3M melanoma
[45] = system: EKVX NSCLC
[46] = system: TK-10 renal
[47] = system: IGROV1 ovarian
[48] = system: NCI-H23 lung
[49] = system: SK-MEL-28 melanoma
[50] = system: HCT-116 colon
[51] = system: MCF7 breast
[52] = system: SW-620 colon
[53] = system: MDA-MB-435
[54] = system: UO-31 renal
[55] = system: MDA-MB-231 breast
[56] = system: SF-268 CNS

CC[C@H](C)[C@H](NC(=O)C12CC(NC)(C1)C2)C(=O)N(C)[C@H](C[C@@H](OC(C)=O)c1nc(C(=O)N[C@@H](Cc2ccccc2)C[C@H](C)C(=O)OC)cs1)C(C)C
GI50 [1]: 171 nM
GI50 [2]: 209 nM
TGI [2]: > 25000 nM
GI50 [3]: 53.4 nM
TGI [3]: > 25000 nM
GI50 [4]: 525 nM
TGI [4]: > 8000 nM
GI50 [5]: 615 nM
TGI [5]: > 25000 nM
GI50 [6]: 3830 nM
TGI [6]: > 25000 nM
GI50 [7]: 786 nM
TGI [7]: > 25000 nM
GI50 [8]: 34.6 nM
TGI [8]: 368 nM
GI50 [9]: 633 nM
TGI [9]: > 25000 nM
GI50 [10]: 234 nM
TGI [10]: 15100 nM
GI50 [11]: 92.8 nM
TGI [11]: > 25000 nM
GI50 [12]: 138 nM
TGI [12]: 1330 nM
GI50 [13]: 55.7 nM
TGI [13]: 163 nM
GI50 [14]: 649 nM
TGI [14]: > 25000 nM
GI50 [15]: 179 nM
TGI [15]: > 17600 nM
GI50 [16]: 349 nM
TGI [16]: > 25000 nM
GI50 [17]: 7170 nM
TGI [17]: > 25000 nM
GI50 [18]: 585 nM
TGI [18]: > 25000 nM
GI50 [19]: 84.2 nM
TGI [19]: > 25000 nM
GI50 [20]: 1110 nM
TGI [20]: > 25000 nM
GI50 [21]: 1710 nM
TGI [21]: > 25000 nM
GI50 [22]: 237 nM
GI50 [23]: 542 nM
TGI [23]: > 25000 nM
GI50 [24]: 97.2 nM
TGI [24]: 1020 nM
GI50 [25]: 282 nM
TGI [25]: > 25000 nM
GI50 [26]: 55 nM
TGI [26]: 511 nM
GI50 [27]: > 25000 nM
TGI [27]: > 25000 nM
GI50 [28]: 208 nM
TGI [28]: > 25000 nM
GI50 [29]: 421 nM
TGI [29]: 1500 nM
GI50 [30]: 401 nM
TGI [30]: 2170 nM
GI50 [31]: 189 nM
TGI [31]: 1560 nM
GI50 [32]: 1390 nM
TGI [32]: > 25000 nM
GI50 [33]: 1520 nM
TGI [33]: > 25000 nM
GI50 [34]: 1110 nM
TGI [34]: > 17100 nM
GI50 [35]: 434 nM
TGI [35]: > 25000 nM
GI50 [36]: 6420 nM
TGI [36]: > 25000 nM
GI50 [37]: 237 nM
TGI [37]: > 11700 nM
GI50 [38]: 199 nM
TGI [38]: 3020 nM
GI50 [39]: 80.6 nM
TGI [39]: 5830 nM
GI50 [40]: 221 nM
TGI [40]: 2410 nM
GI50 [41]: 103 nM
TGI [41]: 999 nM
GI50 [42]: 160 nM
TGI [42]: 1220 nM
GI50 [43]: 19800 nM
TGI [43]: > 25000 nM
GI50 [44]: 329 nM
TGI [44]: > 25000 nM
GI50 [45]: 2130 nM
TGI [45]: > 25000 nM
GI50 [46]: 3700 nM
TGI [46]: > 25000 nM
GI50 [47]: 181 nM
TGI [47]: > 25000 nM
GI50 [48]: 790 nM
TGI [48]: > 25000 nM
GI50 [49]: 2130 nM
TGI [49]: > 25000 nM
GI50 [50]: 96.9 nM
GI50 [51]: 43.9 nM
TGI [51]: > 25000 nM
GI50 [52]: 159 nM
TGI [52]: > 25000 nM
GI50 [53]: 29.7 nM
TGI [53]: 250 nM
GI50 [54]: 1940 nM
TGI [54]: > 25000 nM
GI50 [55]: 576 nM
TGI [55]: > 25000 nM
GI50 [56]: 355 nM
TGI [56]: > 25000 nM
